The source of these data is US10588897B2 (priority 2013, dated 2020).

Where two headings read alike, the source gives them in different places.

One data set concerns E. coli. As to conditions: found by Kimura et al.; cited from earlier work.
For data set [1], the system named is Y. pseudotuberculosis T3SS (YopE secretion). The format is cell-based, Yersinia pseudotuberculosis.
Data set [2] concerns Escherichia coli type III secretion. As to conditions: literature; cited from earlier work.
Data set [3] has as its system Yersinia pestis type III secretion. As to conditions: cited from earlier work.
Data set [4] deals with wildtype Y. pseudotuberculosis IP2666. The format is cell-based, Yersinia pseudotuberculosis.
For data set [5], the system named is Y. pseudotuberculosis T3SS. The format is cell-based, Yersinia pseudotuberculosis.

For `C/C=C\C=C\[C@@H]1O[C@](O)([C@H](CC)C(=O)NC/C=C/C=C(\C)[C@@H](OC)[C@@H](C)[C@@H]2O[C@H](/C=C/C=C/C=C(\C)C(=O)c3c(O)ccn(C)c3=O)[C@H](O)[C@@H]2O)[C@H](O)[C@H](O)C1(C)C` [Aurodox], the “concentrations cytotoxic to E. coli” value with E. coli is “above 12.5 μM”. Also, the “inhibition of YopE secretion” value in data set [1] (12.5 μM, highest concentration used) is “did not significantly inhibit”. Also, the “in vitro type III secretion by Escherichia coli” value in data set [2] is “reduce”.
In the case of `CC(Oc1ccc(Cl)cc1Cl)C(=O)NCc1ccc2c(c1)OCO2` (stereo not drawn) [MBX 1641], in data set [3], the “in vitro type III secretion by Yersinia pestis” value is on record as “reduce”.
On to `C/C=C(\C)[C@H](O)[C@H](C)/C=C(C)/C=C/C/C(C)=C/Cc1nc(OC)cc(O)c1C` [Mer-A 2026B], for which, in data set [1], the “inhibition of YopE secretion at lower concentrations” value is “dose dependent decrease in inhibition” and the “reduction of secretion of the T3SS effector YopE” value was found to be 45%. Also, in data set [4], the “Y. pseudotuberculosis in vitro growth (OD600 compound-treated/OD600 DMSO-treated)” value is given as “do not affect” and the “Yersinia growth by optical density” value is given as “did not inhibit”. For the same molecule, the “YopM translocation into CHO cells” value in data set [5] is recorded as “significantly reduced”. In data set [5] (71 µM), the “T3SS inhibition (YopM translocation into CHO cells)” value came out at 75%.
Regarding `C/C=C(\C)[C@H](O)[C@H](C)/C=C(C)/C=C/C/C(C)=C/Cc1nc(OC)c(OC)c(O)c1C` [Piericidin A1], the “reduction of secretion of the T3SS effector YopE” value in data set [1] (71 μM, 2 hours at 37° C., relative to DMSO) is 65%. The “Y. pseudotuberculosis in vitro growth (OD600 compound-treated/OD600 DMSO-treated)” value in data set [4] (143 μM, 23° C., continuous shaking) is listed as “do not affect”; in data set [4] (143 μM, 37° C., continuous shaking), “do not affect”. Besides, the “Yersinia growth by optical density” value in data set [4] (26° C. and 37° C., all tested concentrations up to 143 μM) was “did not inhibit”. In data set [5] (concentrations of 36 μM and greater), the YopM-β-lactamase translocation entry is reported as “significantly diminished”.
